Test results as given in paper PMC11191602, “A novel and selective fluorescent ligand for the study of adenosine A2B receptors” (Pharmacology Research & Perspectives, 2024).
One block for each compound: values may come before it.

What was measured:
human NLuc‐A3R = biological target: T1, human NLuc‐A3R (Homo sapiens, UniProt P0DMS8); assay: NanoBRET saturation binding in stable HEK293G cell line expressing NLuc‐A3R; conditions: non‐specific defined with 1 μM MRS‐1220; PSB603‐BY630 at concentrations up to 500 nM
T1 construct: expressed in transfected cells
T1 sequence (P0DMS8 1-318): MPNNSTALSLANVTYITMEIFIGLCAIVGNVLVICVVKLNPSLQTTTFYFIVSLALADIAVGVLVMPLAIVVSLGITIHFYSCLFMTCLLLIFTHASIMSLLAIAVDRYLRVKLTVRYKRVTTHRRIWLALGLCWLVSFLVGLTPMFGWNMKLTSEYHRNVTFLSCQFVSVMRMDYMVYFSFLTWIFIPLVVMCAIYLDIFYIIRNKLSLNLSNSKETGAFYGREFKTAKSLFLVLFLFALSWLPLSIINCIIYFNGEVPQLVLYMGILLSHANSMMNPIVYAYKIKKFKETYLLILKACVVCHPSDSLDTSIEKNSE
Procedure: (§1) Saturation and competition binding assays were performed as previously described.[36] Briefly, cells were seeded in 96‐well white clear‐bottomed Greiner plates pre‐treated with 10 μg/mL poly‐D‐lysine (Sigma‐Aldrich, Missouri USA) at a density of 30 000–35 000 cells per well in DMEM supplemented with 10% FBS. […] The NanoLuc substrate, furimazine (Promega Corporation, Wisconsin, USA), was then added to each well (1:400 dilution) and the plate was incubated for 10 min in the dark at 37°C. The resulting bioluminescence resonance energy transfer (BRET) was measured using a PHERAstar FS plate reader (BMG Labtech) at 37°C. For each well, filtered light emissions at 460 nm (80 nm bandpass) and >610 nm (longpass) for the BODIPY630/650 ligand were simultaneously measured. BRET ratios were calculated by dividing the 610 nm emission by the 460 nm emission. All conditions were performed in 2–6 replicates within each plate. For kinetic experiments, cells were preincubated for 10 min with 1:400 dilution of furimazine prior to addition of 200 nM PSB603‐BY630 and BRET ratios determined every 0.5 min. At 60 min, 10 μM MRS‐1706 was added and the ligand‐binding kinetics followed for a further 60 min.

endogenous A2BR = biological target: T2, endogenous A2BR (Homo sapiens, UniProt P29275); assay: cAMP GloSensor luminescence assay in HEK293G cells endogenously expressing A2BR; assay type: cell-based; conditions: agonist alone, n=5
T2 construct: HEK293G cells that express the cAMP biosensor Glosensor also endogenously express both A2BR and A2AR; host or cells: HEK293G
T2 sequence (P29275 1-332): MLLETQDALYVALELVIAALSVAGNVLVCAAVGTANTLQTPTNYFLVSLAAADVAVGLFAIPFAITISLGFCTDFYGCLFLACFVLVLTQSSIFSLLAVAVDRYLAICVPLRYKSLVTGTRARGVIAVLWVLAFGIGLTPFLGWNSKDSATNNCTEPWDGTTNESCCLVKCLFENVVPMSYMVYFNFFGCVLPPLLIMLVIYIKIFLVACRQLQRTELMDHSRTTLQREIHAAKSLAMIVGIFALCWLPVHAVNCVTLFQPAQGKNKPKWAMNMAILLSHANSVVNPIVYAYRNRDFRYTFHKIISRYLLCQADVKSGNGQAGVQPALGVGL
Procedure: (§2) The cAMP GloSensor™ luminescence assay was performed according to the manufacturer's instructions (Promega Corporation, Madison, WI, USA). Briefly, after 24 h incubation at 37°C and 5% CO2 after cell plating (40 000 cells/well in 100 μL), medium was aspirated from each well of the 96‐well plate. Cells were incubated in 50 μL HEPES buffered saline solution (HBSS; 2 mM sodium pyruvate, 145 mM NaCl, 10 mM D‐glucose, 5 mM KCl, 1 mM MgSO4.7H2O, 10 mM HEPES, 1.3 mM CaCl2, 1.5 mM NaHCO3 in double‐distilled water, pH 7.45) containing 3% GloSensor™ cAMP reagent at 37°C for 1.5 h. For agonist studies, an initial baseline luminescence read was made at time zero, the plate was then removed from the plate‐reader and a further 50 μL HBSS containing agonist (2× final concentration) or HBSS (vehicle control) added. Luminescence was measured on an open channel (gain of 3600) immediately after these additions, and then continuously over 60 min, reading each well once every minute, by a PHERAstar FSX microplate reader (BMG Labtech, Offenburg, Germany) at 37°C. Increases in luminescence are indicative of intracellular cAMP accumulation, thus the temporal changes in relative cytosolic cAMP concentration were measured upon agonist or vehicle addition. Antagonist action was determined following 30 min pre‐incubation of HBSS in the presence of 20 and 200 nM PSB603‐BY630 and read as above. All conditions were performed in triplicates within each plate.

NLuc‐A2BR [1] = biological target: T3, NLuc‐A2BR (Homo sapiens, UniProt P29275); assay: cAMP GloSensor luminescence assay in HEK293G cells overexpressing NLuc‐A2BR; assay type: cell-based; conditions: agonist alone, n=5
T3 construct: expressed in transfected cells
T3 sequence (P29275 1-332): T2 sequence (P29275 1-332)
Procedure: as §2

NLuc‐A2BR [2] = biological target: T3, NLuc‐A2BR; assay: NanoBRET competition binding against 50 nM PSB603‐BY630 in HEK293G cells expressing NLuc‐A2BR; conditions: for Ki: read-out: Appararent Log K i (converted)
Procedure: as §1, with “min.” for “min. At 60 min, 10 μM MRS‐1706 was added and the ligand‐binding kinetics followed for a further 60 min.”
The IC 50 values were then used to calculate the K i values using the Cheng‐Prussoff equation: Ki=IC50/1+L/KD where [L] is the concentration of PSB603‐BY630 in nM, and K D is the dissociation constant of that fluorescent ligand in nM.

NLuc‐A2BR [3] = biological target: T3, NLuc‐A2BR; assay: NanoBRET imaging of PSB603‐BY630 binding to HEK293G cells expressing NLuc‐A2BR; conditions: 100 nM PSB603‐BY630, co‐incubation with 10 μM MRS‐1706, 30 min
Procedure: Cells were seeded onto 35 mm Cellview 4‐quadrant culture dishes (Greiner Bio‐one), which have a 10 mm glass coverslip bottom, in DMEM supplemented with 10% FBS at a density of 100 000 cells per quadrant 2 days prior to experiment in total volume of 500 μL. On the day of the experiment medium was replaced with HBSS in the presence or absence of PSB603‐BY630 (100 nM) and/or MRS1706 (10 μM) and incubated for 30 min at 37°C before imaging. Bioluminescence and NanoBRET imaging were performed on an Olympus LuminoView 200 microscope with a 60× NA1.42 oil immersion objective with a 0.5× tube lens, following addition of furimazine (1:800 dilution) (Promega). Images were captured by a C9100‐23B IMAGE EMX2 camera (Hamamatsu, Japan) with gain set at 200 for all channels. Filtered bioluminescence was captured using a 438/24 bandpass filter, BRET in the presence of PSB603‐BY630 was captured using a 650/50 nm bandpass filter. For the NLuc‐A2BR stable cell line exposure times were set at 10 s for filtered bioluminescence and 75 sec for BRET. Raw intensity values were determined for three regions of interest per experiment per condition and the BRET ratio calculated by dividing the raw intensity recorded from the BRET capture by the filtered bioluminescence capture. Corrected BRET ratios were determined by subtracting the BRET ratio determined from a control quadrant (HBSS alone). […]

human A2BR = biological target: human A2BR; parameters: method as in PMID 23286920; conditions: membranes from CHO cells expressing the human A2BR ref 13; cited from earlier work

specific binding to NLuc‐A3R (human NLuc‐A3R): high affinity specific binding
SMILES: COc1ccc(-n2nc3c(NC(=O)CCC(=O)NCCOCCOCCNC(=O)CCCCCNC(=O)COc4ccc(/C=C/C5=[N+]6C(=Cc7ccc(-c8cccs8)n7[B-]6(F)F)C=C5)cc4)nc4ccccc4n3c2=O)cc1 [AV039]

SMILES: N#Cc1c(N)nc(SCC(N)=O)c(C#N)c1-c1ccc(OCC2CC2)cc1 [BY 60–6583, 2‐[[6‐Amino‐3,5‐dicyano‐4‐[4‐(cyclopropylmethoxy)phenyl]‐2‐pyridinyl]thio]‐acetamide]
Emax (endogenous A2BR; HEK293G, read-out: Endogenous HEK293G EMAX (% of response to 3 μM BAY‐60‐6583)): 104 ± 3.09%
EC50 (endogenous A2BR; read-out: Endogenous HEK293G Log EC50 (converted)): 0.129 µM
Emax (NLuc‐A2BR [1]; HEK293G, read-out: HEK293G A2BAR EMAX (% of response to 0.3 μM BAY‐60‐6583)): 100 ± 1.29%
EC50 (NLuc‐A2BR [1]; read-out: HEK293G A2BAR Log EC50 (converted)): 0.0186 µM

SMILES: O=C(Cc1ccccc1)Nc1nc2ccc(Cl)cc2c2nc(-c3ccco3)nn12 [MRS1220, N‐[9‐Chloro‐2‐(2‐furanyl)[1,2,4]‐triazolo[1,5‐c]quinazolin‐5‐yl]benzene acetamide]
Appararent Log K i (NLuc‐A2BR [2]; calculated from IC50 (Cheng‐Prussoff) assuming competition with 50 nM PSB603‐BY630 for the same site, mean ± S.E.M., n=5): −6.40 ± 0.19
Log IC50 (NLuc‐A2BR [2]; inhibition of the binding of 50 nM PSB603‐BY630, mean ± S.E.M., n=5): −5.82 ± 0.19

SMILES: CCCn1c(=O)c2[nH]c(-c3ccc(OCC(=O)Nc4ccc(C(C)=O)cc4)cc3)nc2n(CCC)c1=O [MRS1706, N‐(4‐Acetylphenyl)‐2‐[4‐(2,3,6,7‐tetrahydro‐2,6‐dioxo‐1,3‐dipropyl‐1H‐purin‐8‐yl)phenoxy]acetamide]
effect on PSB603‐BY630 binding to cell surface receptors (BRET imaging) (NLuc‐A2BR [3]): completely prevented
IC50 (NLuc‐A2BR [2]): 0.0363 µM
Ki (NLuc‐A2BR [2]): 0.00977 µM

IC50 (NLuc‐A2BR [2]): 9.55 µM
Ki (NLuc‐A2BR [2]): 2.57 µM
SMILES: COc1ccc(CCCn2ncc3c2nc(N)n2nc(-c4ccco4)nc32)cc1 [SCH442416, 2‐(2‐Furanyl)‐7‐[3‐(4‐methoxyphenyl)propyl]‐7H‐pyrazolo[4,3‐e][1,2,4]triazolo[1,5‐c]pyrimidin‐5‐amine]

IC50 (NLuc‐A2BR [2]): 6.46 µM
Ki (NLuc‐A2BR [2]): 1.74 µM
SMILES: O[C@H]1CC[C@H](Nc2nc(-c3ccccc3)nc3[nH]ccc23)CC1 [SLV320, trans‐4‐[(2‐Phenyl‐7H‐pyrrolo[2,3‐d]pyrimidin‐4‐yl)amino]cyclohexanol]

SMILES: CCCn1c(=O)[nH]c2nc(-c3ccc(S(=O)(=O)N4CCN(c5ccc(Cl)cc5)CC4)cc3)[nH]c2c1=O [[^3H]‐PSB603]
Kd (human A2BR): 0.0036 µM
